Measured values from patent US9580430B2, “9H-pyrimido[4,5-B]indoles and related analogs as BET bromodomain inhibitors” (THE REGENTS OF THE UNIVERSITY OF MICHIGAN, priority 2014, dated 2017).

Legend:
recombinant BRD4 BD1 = biological target: T1, recombinant BRD4 BD1 (Homo sapiens, UniProt O60885); assay: Competitive fluorescence-polarization (FP) binding assay, BRD4 BD1; conditions: competitive FP assay; protein 10 nM, probe […]; read-out: IC50 (nM) BRD4 BD1; also: probe 1.5 nM
T1 construct: for recombinant BRD4 BD1 and BRD4 BD2 proteins
Procedure, shortened: (§1)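 FP competition with FAM-labelled probe (ZBA248 or BRD-1F) against preincubated protein/probe complex; BD1 at 10 nM and BD2 at 6 nM final, in 100 mM potassium phosphate pH 6.5, 0.01% Triton X-100. 30 min, room temperature. IC50 by nonlinear regression; Ki also derived, using probe Kd from protein saturation.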

recombinant BRD4 BD2 = biological target: T2, recombinant BRD4 BD2 (Homo sapiens, UniProt O60885); assay: Competitive fluorescence-polarization (FP) binding assay, BRD4 BD2; conditions: competitive FP assay; protein 6 nM, probe […]; read-out: IC50 (nM) BRD4 BD2; also: probe 1.5 nM
T2 construct: for recombinant BRD4 BD1 and BRD4 BD2 proteins
Procedure, shortened: as §1

MOLM-13 = assay: Cell growth inhibition, MOLM-13 leukemia cells (CellTiter-Glo); assay type: cell-based; conditions: Homo sapiens, MOLM-13, 96 h; 4 days; read-out: IC50 (nM) MOLM-13 Cell Line (CellTiter-Glo assay)
Procedure, shortened: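 MOLM-13 leukemia cells treated with compounds; viability read by CellTiter-Glo luminescence after 10-20 min reagent incubation at room temperature. IC50 derived from luminescent signal.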

MDA-MB-436 = assay: Cell growth inhibition, MDA-MB-436 breast cancer cells (WST-8); assay type: cell-based; conditions: Homo sapiens, MDA-MB-436, 96 h; 4 days; read-out: IC50 (nM) MDA-MB-436 Cell Line (WST assay)
Procedure, shortened: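 IC50 was computed from WST-8-based cell counting in MDA-MB-436 cells, with absorbance read at 450 nm.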

Row | IC50 (recombinant BRD4 BD1) [nM] | IC50 (recombinant BRD4 BD2) [nM] | IC50 (MOLM-13) [nM] | IC50 (MDA-MB-436) [nM] | SMILES
1 | 14 | 22 | 31 | 62 | COc1cc2c(cc1-c1c(C)noc1C)[nH]c1nc(C)nc(Nc3cn(C)c4ncccc34)c12 [Cpd. No. 227, 7-(3,5-dimethylisoxazol-4-yl)-6-methoxy-2-methyl-N-(1-methyl-1H-pyrrolo[2,3-b]pyridin-3-yl)-9H-pyrimido[4,5-b]indol-4-amine]
2 | 25 | 26 | 87 | 129 | COc1cc2c(cc1-c1c(C)noc1C)[nH]c1nc(C)nc(Nc3cccc4nc(C)ccc34)c12 [Cpd. No. 228, 7-(3,5-dimethylisoxazol-4-yl)-6-methoxy-2-methyl-N-(2-methylquinolin-5-yl)-9H-pyrimido[4,5-b]indol-4-amine]
3 | 24 | 22 | 69 | 88 | COc1cc2c(cc1-c1c(C)noc1C)[nH]c1nc(C)nc(Nc3cccc4ncsc34)c12 [Cpd. No. 229, N-(7-(3,5-dimethylisoxazol-4-yl)-6-methoxy-2-methyl-9H-pyrimido[4,5-b]indol-4-yl)benzo[d]thiazol-7-amine]
4 | 13 | 8 | 71 | 123 | COc1cc2c(cc1-c1c(C)noc1C)[nH]c1nc(C)nc(Nc3cccc(N(C)C)c3)c12 [Cpd. No. 230, N1-(7-(3,5-dimethylisoxazol-4-yl)-6-methoxy-2-methyl-9H-pyrimido[4,5-b]indol-4-yl)-N3,N3-dimethylbenzene-1,3-diamine]
5 | 35 | 44 | 28 | 79 | COc1cc2c(cc1-c1c(C)noc1C)[nH]c1nc(C)nc(Nc3cccc4c3CCN4)c12 [Cpd. No. 231, 7-(3,5-dimethylisoxazol-4-yl)-N-(indolin-4-yl)-6-methoxy-2-methyl-9H-pyrimido[4,5-b]indol-4-amine]
6 | 29 | 52 | 62 | 238 | COc1cc2c(cc1-c1c(C)noc1C)[nH]c1nc(C)nc(Nc3ccc4c(c3)N(C)CC4)c12 [Cpd. No. 232, 7-(3,5-dimethylisoxazol-4-yl)-6-methoxy-2-methyl-N-(1-methylindolin-6-yl)-9H-pyrimido[4,5-b]indol-4-amine]
7 | 69 | 38 | 101 | 222 | COc1cc2c(cc1-c1c(C)noc1C)[nH]c1nc(C)nc(Nc3ccc4cc[nH]c4c3)c12 [Cpd. No. 233, 7-(3,5-dimethylisoxazol-4-yl)-N-(1H-indol-6-yl)-6-methoxy-2-methyl-9H-pyrimido[4,5-b]indol-4-amine]
8 | 25 | 25 | 34 | 139 | COc1cc2c(cc1-c1c(C)noc1C)[nH]c1nc(C)nc(Nc3cccc4c3CCO4)c12 [Cpd. No. 234, N-(2,3-dihydrobenzofuran-4-yl)-7-(3,5-dimethylisoxazol-4-yl)-6-methoxy-2-methyl-9H-pyrimido[4,5-b]indol-4-amine]
9 | 41 | 52 | 74 | 146 | COc1cc2c(cc1-c1c(C)noc1C)[nH]c1nc(C)nc(Nc3cccc4c3cnn4C)c12 [Cpd. No. 235, 7-(3,5-dimethylisoxazol-4-yl)-6-methoxy-2-methyl-N-(1-methyl-1H-indazol-4-yl)-9H-pyrimido[4,5-b]indol-4-amine]
10 | 14 | 59 | 49 | 117 | COc1cc2c(cc1-c1c(C)noc1C)[nH]c1nc(C)nc(Nc3cccc4c3ccn4C)c12 [Cpd. No. 236, 7-(3,5-dimethylisoxazol-4-yl)-6-methoxy-2-methyl-N-(1-methyl-1H-indol-4-yl)-9H-pyrimido[4,5-b]indol-4-amine]
11 | 10 | 5 | 41 | 72 | COc1cc2c(cc1-c1c(C)noc1C)[nH]c1nc(C)nc(Nc3cc(C)cc(C)c3)c12 [Cpd. No. 237, 7-(3,5-dimethylisoxazol-4-yl)-N-(3,5-dimethylphenyl)-6-methoxy-2-methyl-9H-pyrimido[4,5-b]indol-4-amine]
12 | 5 | 3 | 39 | 61 | COc1cc2c(cc1-c1c(C)noc1C)[nH]c1nc(C)nc(Nc3cc(C)ccc3C)c12 [Cpd. No. 238, 7-(3,5-dimethylisoxazol-4-yl)-N-(2,5-dimethylphenyl)-6-methoxy-2-methyl-9H-pyrimido[4,5-b]indol-4-amine]
13 | 19 | 28 | 22 | 43 | COc1cc2c(cc1-c1c(C)noc1C)[nH]c1nc(C)nc(Nc3c(C4CC4)nn(C)c3C3CC3)c12 [Cpd. No. 239, N-(3,5-dicyclopropyl-1-methyl-1H-pyrazol-4-yl)-7-(3,5-dimethylisoxazol-4-yl)-6-methoxy-2-methyl-9H-pyrimido[4,5-b]indol-4-amine]
14 | 13 | 20 | 20 | 46 | CCc1nn(C)c(CC)c1Nc1nc(C)nc2[nH]c3cc(-c4c(C)noc4C)c(OC)cc3c12 [Cpd. No. 240, N-(3,5-diethyl-1-methyl-1H-pyrazol-4-yl)-7-(3,5-dimethylisoxazol-4-yl)-6-methoxy-2-methyl-9H-pyrimido[4,5-b]indol-4-amine]
15 | 16 | 29 | 33 | 76 | CCc1nn(CC)c(CC)c1Nc1nc(C)nc2[nH]c3cc(-c4c(C)noc4C)c(OC)cc3c12 [Cpd. No. 241, 7-(3,5-dimethylisoxazol-4-yl)-6-methoxy-2-methyl-N-(1,3,5-triethyl-1H-pyrazol-4-yl)-9H-pyrimido[4,5-b]indol-4-amine]
16 | 9 | 12 | 24 | 47 | COc1cc2c(cc1-c1c(C)noc1C)[nH]c1nc(C)nc(Nc3c(C(C)C)nn(C)c3C(C)C)c12 [Cpd. No. 242, N-(3,5-diisopropyl-1-methyl-1H-pyrazol-4-yl)-7-(3,5-dimethylisoxazol-4-yl)-6-methoxy-2-methyl-9H-pyrimido[4,5-b]indol-4-amine]
17 | 15 | 14 | 61 | 162 | COc1cc2c(cc1-c1c(C)noc1C)[nH]c1nc(C)nc(Nc3ccccc3C(C)C)c12 [Cpd. No. 243, 7-(3,5-dimethylisoxazol-4-yl)-N-(2-isopropylphenyl)-6-methoxy-2-methyl-9H-pyrimido[4,5-b]indol-4-amine]
18 | 165 | 121 | 113 | 115 | COc1cc2c(cc1-c1c(C)noc1C)[nH]c1nc(C)nc(Nc3ccnc4ccccc34)c12 [Cpd. No. 247, 7-(3,5-dimethylisoxazol-4-yl)-6-methoxy-2-methyl-N-(quinolin-4-yl)-9H-pyrimido[4,5-b]indol-4-amine]
19 | 29 | 99 | 159 | 302 | COc1cc2c(cc1-c1c(C)noc1C)[nH]c1nc(C)nc(Nc3c(F)c(C4CC4)nn3C)c12 [Cpd. No. 249, N-(3-cyclopropyl-4-fluoro-1-methyl-1H-pyrazol-5-yl)-7-(3,5-dimethylisoxazol-4-yl)-6-methoxy-2-methyl-9H-pyrimido[4,5-b]indol-4-amine]
